Values joined by “and” are separate entries in the source; they are usually repeats but may differ in a detail not shown here. Equal entries are not always repeated. “Also recorded” adds a separate entry of the source.
Experiments:
CoCl2 induced CNV [1] = test: Effect of anti-angiogenic drugs on CoCl2 induced CNV, visual assessment of Phy-V stained whole zebrafish; format: in vivo; conditions: for Mean ± SE (% CNV) / % CNV (per experiment) / CNV zebrafish (number per experiment): co-treatment with 0.1 mg/ml CoCl2, 24 hpf to 5 dpf; for abnormal neovascularization in the choroidal vessel plexus: co-treatment with CoCl2, 5 dpf zebrafish
Experimental: 24 hpf zebrafish were treated with 0.1 mg/ml CoCl2 continuously for 4 days, and various concentrations of Celebrex or Genistein were incubated with the zebrafish. At the 5 dpf stage, zebrafish were fixed and stained with zebrafish angiogenic-vessel-specific antibody, Phy-V. Several treatment strategies were assessed: (1) pre-treatment (high concentration of drug added for 4 hours and withdrawn before CoCl2 induction); (2) co-treatment (drugs were co-treated with CoCl2); and (3) post-treatment (drugs were added 24 hours after CoCl2).
The drug effects on CNV zebrafish were assessed visually using microscopic examination of Phy-V stained whole zebrafish. % CNV inhibition was calculated by dividing the total number of CNV zebrafish by the total number of zebrafish per experiment (Tables II and III). The percentage of CNV zebrafish was lowest after co-treatment with Celebrex.
Celebrex or Genistein Co-Treatment. Celebrex and Genistein dissolved in DMSO were added directly to fish water, the final concentration of DMSO for Celebrex and Genistein was 0.8%. For pre-treatment, 24 hpf zebrafish were incubated with high concentrations of each drug at 28° C. for 4 hours; the drugs were washed off and zebrafish were treated with 0.1 mg/ml CoCl2. For co-treatment, each drug was added simultaneously with 0.1 mg/ml CoCl2. For post-treatment, each drug was added 24 hours after CoCl2 addition. After drug treatment, zebrafish were washed and processed for whole mount immunochemical staining
Whole Mount Immunofluorescence Staining. Zebrafish were fixed by Dent's fixative (DMSO/methanol=⅓) and processed for whole mount immunochemical staining following standard procedures (Westerfield, 1993, supra). Alexa 488 conjugated Phy-V antibody (Phylonix), which specifically labels activated endothelial cells, was used to stain zebrafish, and followed by examination by fluorescence microscopy.

zebrafish eye (retina) = format: in vivo
CoCl2 induced CNV [2] = test: Eye specific angiogenesis ELISA (eZ-CNV ELISA) on isolated eyes; format: in vivo, zebrafish; conditions: co-treatment with 0.1 mg/ml CoCl2 for 4 days, 4 eyes/well
Experimental: Calculation of Drug Effects. To reduce the variability contributed by substrate and to compare results from different assays performed on different days, drug effects were normalized to % inhibition on EC proliferation. Chemiluminescent signal (CU) in each well (containing 4 eyes) was measured and used to calculate drug effect. […] In addition, to estimate non-specific background signal, 24 C were processed without antibody incubation; the mean value of which was subtracted from each CU measurement. Mean CU of D was used as 100% control. Drug effect was calculated following formula (a). %Inhibition=(1−(CU(drug treated)/CU(control)))×100% (a)
Based on the visual assessment above, co-treatment chosen as the treatment method to investigate the effects of the anti-angiogenic drugs Celebrex and Genistein in CoCl2 induced CNV in zebrafish using the eZ-CNV™ ELISA. Drug effects were calculated using the method described in Materials and Methods, infra. […] Based on the dose response curve, the optimal concentration for Celebrex was 20 μM and for Genistein was 0.0001 μM.
Methods for Dissociating Eyes from Whole Zebrafish. Zebrafish were processed for whole mount immunochemical staining with either Alexa 488 or HRP conjugated Phy-V following standard procedures. After extensive washing, stained zebrafish were incubated with 150 U/ml collagenase at 37° C. for 45 minutes; eyes were then dissociated from the whole zebrafish by gentle pipetting.
Eye Specific Angiogenesis ELISA (eZ-CNV™ ELISA). Isolated eyes of whole mount Phy-V-HRP stained zebrafish were placed in 96-well microplates, 4 eyes/well; 150 μl/well PS-atto (Lumigen, Southfield, Mich.), chemiluminescence HRP substrate, was added and the chemiluminescence signal from the enzymatic product was detected by Synergy HT microplate reader (BioTeK Instruments, Inc., Winooski, Vt.).

IGF = test system: IGF; parameters: key: ↑: Up arrows indicate up-regulation; ↓: down arrows indicate down-regulation; —: horizontal line indicates no change; conditions: zebrafish, in vivo
PEDF = test system: PEDF; parameters: key: ↑: Up arrows indicate up-regulation; ↓: down arrows indicate down-regulation; —: horizontal line indicates no change; conditions: zebrafish, in vivo
[3] = test system: choroidal neovascularization (CNV) in zebrafish; test: Hypoxia-induced choroidal neovascularization (CNV) model, Phy-V staining of treated zebrafish; format: in vivo
zebrafish = conditions: in vivo
PGK = test system: PGK; parameters: key: ↑: Up arrows indicate up-regulation; ↓: down arrows indicate down-regulation; —: horizontal line indicates no change; conditions: zebrafish, in vivo
VEGF = test system: VEGF; parameters: key to VEGF expression (RT-PCR): ↑: Up arrows indicate up-regulation; ↓: down arrows indicate down-regulation; —: horizontal line indicates no change; conditions: zebrafish, in vivo
HIF-1α = test system: HIF-1α; parameters: key: ↑: Up arrows indicate up-regulation; ↓: down arrows indicate down-regulation; —: horizontal line indicates no change; conditions: zebrafish, in vivo
[4] = CoCl2 + 20 μM Celebrex-treated 5 dpf zebrafish

## Cc1ccc(-c2cc(C(F)(F)F)nn2-c2ccc(S(N)(=O)=O)cc2)cc1 [Celebrex]
CoCl2 induced CNV [1]; Celebrex 10 μM
  Mean ± SE (% CNV): 37.0 ± 16.1%
CoCl2 induced CNV [1]; Celebrex 15 μM
  Mean ± SE (% CNV): 22.1 ± 12.4%
CoCl2 induced CNV [1]; Celebrex 20 μM
  % CNV (per experiment): 0% and 10.0%
  Mean ± SE (% CNV): 3.3 ± 3.3%
CoCl2 induced CNV [1]
  abnormal neovascularization in the choroidal vessel plexus: prevented abnormal neovascularization
CoCl2 induced CNV [1]; post-treatment, drug added 24 hours after CoCl2
  inhibition of CoCl2 induced CNV after post-treatment: limited inhibition
CoCl2 induced CNV [1]; pre-treatment, high concentration of drug 4 hours, withdrawn before CoCl2 induction
  CNV after pre-treatment: low percentage of CNV zebrafish, however, the CNV defects were severe
Zebrafish eye (retina); [4]
  effect on eye development: did not delay eye development
  retinal structure: normal 5 layer structure with no vessels present in the retina
CoCl2 induced CNV [2]
  dose response in eZ-CNV ELISA: typical dose response curve
  optimal concentration based on the dose response curve: 20 µM

## [Cl-].[Cl-].[Co+2] [CoCl2]
IGF
  IGF expression (RT-PCR): —
PEDF
  PEDF expression (RT-PCR): —
[3]; zebrafish, in vivo
  frequency or severity of CNV: did not increase the frequency or severity of CNV
  number of treated zebrafish exhibiting CNV specific phenotype: 64
  treated zebrafish exhibiting CNV specific phenotype: 63.6±11.1%
  vessel growth: did not stimulate vessel growth
zebrafish
  lethality: instantaneous death
  zebrafish dying: 100%
Zebrafish eye (retina); zebrafish, in vivo
  retinal structure / vessels in the retina: abnormal vessels formed in the retina; also recorded: abnormal retinal structure
PGK
  PGK expression (RT-PCR): —
VEGF
  VEGF expression (RT-PCR): — and ↑
  VEGF expression (RT-PCR), in words: Up-regulation
HIF-1α
  HIF-1α expression (RT-PCR): ↑ and ↓ and —

## O=c1c(-c2ccc(O)cc2)coc2cc(O)cc(O)c12 [Genistein]
CoCl2 induced CNV [1]; Genistein 0.0001 μM
  Mean ± SE (% CNV): 20.8%
CoCl2 induced CNV [1]; Genistein 0.001 μM
  % CNV (per experiment): 36.8% and 39.1%
  CNV zebrafish (number per experiment): 7 and 9
  Mean ± SE (% CNV): 38.0%
CoCl2 induced CNV [1]; Genistein 0.01 μM
  % CNV (per experiment): 23.5%
  CNV zebrafish (number per experiment): 4
  Mean ± SE (% CNV): 23.5%
CoCl2 induced CNV [1]
  abnormal neovascularization in the choroidal vessel plexus: prevented abnormal neovascularization
CoCl2 induced CNV [2]
  dose response in eZ-CNV ELISA: only showed preventative effects at a low concentration
  optimal concentration based on the dose response curve: 0.0001 µM

## CC(C)(S)[C@@H](N)C(=O)O [Penicillamine]
[3]; 0.01 μM Penicillamine from 24 hpf, at 5 dpf
  CNV: CNV was observed
[3]; 0.01 μM Penicillamine treatment at the 24 hpf stage
  angiogenesis: stimulated angiogenesis throughout the zebrafish
[3]; Penicillamine treatment
  zebrafish developing CNV compared with CoCl2 treatment: Fewer zebrafish developed CNV
